Source: ChEMBL document CHEMBL2157929, “Synthesis and structure-activity relationship of fused-pyrimidine derivatives as a series of novel GPR119 agonists” (Bioorg Med Chem, 2012)
≈ marks a conversion by molar mass, not a printed value.

Assays:
[1] = biological target: T1, Glucose-dependent insulinotropic receptor (Homo sapiens) (UniProt Q8TDV5); assay: Agonist activity at human recombinant GPR119 expressed in HEK293 cells co-expressing pCRE-Luc at 10 uM after 6 hrs by cAMP reporter assay relative to 2-(2-(4-bromophenyl)-6-methylpyrimidin-4-ylamino)ethanol; format: functional, cell-based
T1 sequence (whole entry): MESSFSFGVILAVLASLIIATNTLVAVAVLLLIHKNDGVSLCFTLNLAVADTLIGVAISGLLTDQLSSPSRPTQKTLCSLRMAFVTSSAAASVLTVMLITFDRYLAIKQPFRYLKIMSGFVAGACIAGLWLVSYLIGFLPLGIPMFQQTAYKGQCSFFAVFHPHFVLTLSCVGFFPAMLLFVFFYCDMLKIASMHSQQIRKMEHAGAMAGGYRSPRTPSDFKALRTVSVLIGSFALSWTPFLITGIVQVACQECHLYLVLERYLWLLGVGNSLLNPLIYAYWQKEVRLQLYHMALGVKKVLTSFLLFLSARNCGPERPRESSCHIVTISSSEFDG

[2] = system: Mus musculus; assay: Antihyperglycemic activity in po dosed ICR mouse assessed as reduction of blood glucose level after 30 mins by oral glucose tolerance test; format: functional; conditions: 0.5 h, read-out: MED
[3] = system: Mus musculus; assay: Antihyperglycemic activity in ICR mouse assessed as reduction of blood glucose level at 1 mg/kg, po after 30 mins by oral glucose tolerance test; format: functional; design: scale not given: the % may be the effect or the level left
[4] = biological target: T1, Glucose-dependent insulinotropic receptor (Homo sapiens); assay: Agonist activity at human recombinant GPR119 expressed in HEK293 cells co-expressing pCRE-Luc assessed as concentration required to showing equipotent efficacy to 2-(2-(4-bromophenyl)-6-methylpyrimidin-4-ylamino)ethanol after 6 hrs by cAMP reporter assay; format: functional, cell-based
[5] = Solubility of compound at pH 6.8 after 20 hrs by precipitation method; format: physicochemical; conditions: buffer
[6] = Inhibition of cytochrome P450 up to 50 uM; format: ADME
[7] = Clearance in human liver microsomes; format: ADME, Microsome; conditions: read-out: CLH
[8] = system: Mus musculus; assay: Antihyperglycemic activity in ICR mouse assessed as reduction of blood glucose level at 0.1 mg/kg, po after 30 mins by oral glucose tolerance test; format: functional; design: scale not given: the % may be the effect or the level left
[9] = system: Mus musculus; assay: Antihyperglycemic activity in ICR mouse assessed as reduction of blood glucose level at 0.3 mg/kg, po after 30 mins by oral glucose tolerance test; format: functional; design: scale not given: the % may be the effect or the level left
[10] = system: Mus musculus; assay: Antihyperglycemic activity in ICR mouse assessed as reduction of blood glucose level at 3 mg/kg, po after 30 mins by oral glucose tolerance test; format: functional; design: scale not given: the % may be the effect or the level left

Structure (SMILES)	Intrinsic activity [1]	minimal effective dose [2]	Activity [3]	EC [4]	solubility kinetic at 20 h [5]	inhibition (INH) [6]	CLint scaled [7]	Activity [8]	Activity [9]	Activity [10]
NC(=O)CN1CCN(c2nc(-c3cc(F)c(Cl)cc3F)nc3c2CS(=O)(=O)C3)CC1	737%	3 mg/kg	17%	44 nM	> 100 µM	–	–	–	–	–
CN(C)C(=O)C1CCN(c2nc(-c3cc(F)c(Cl)cc3F)nc3c2CS(=O)(=O)C3)CC1	292%	1 mg/kg	32%	350 nM	> 100 µM	–	–	–	–	–
Fc1cc(-c2nc3c(c(N4CCOCC4)n2)CCC3)c(F)cc1Cl	405%	–	–	350 nM	–	–	–	–	–	–
O=S1(=O)Cc2nc(-c3cc(F)c(Cl)cc3F)nc(N3CCC(O)CC3)c2C1	575%	1 mg/kg	32%	14 nM	91 µM (≈ 37.8 µg/mL)	–	–	–	–	–
Fc1cc(-c2nc3c(c(N4CCOCC4)n2)SCC3)c(F)cc1Cl	426%	–	–	57 nM	–	–	–	–	–	–
Fc1cc(-c2nc3c(c(N4CCOCC4)n2)COC3)c(F)cc1Cl	205%	–	–	4100 nM	–	–	–	–	–	–
O=S1(=O)Cc2nc(-c3cc(F)c(Cl)cc3F)nc(N3CCC(CCO)CC3)c2C1	506%	1 mg/kg	29%	2.8 nM	23 µM (≈ 10.2 µg/mL)	–	–	–	–	–
NC(=O)CC1CCN(c2nc(-c3cc(F)c(Cl)cc3F)nc3c2CS(=O)(=O)C3)CC1	483%	0.1 mg/kg	35%	8.3 nM	15 µM (≈ 6.85 µg/mL)	Not Active	58 mL/min/kg	27%	–	–
Fc1cc(-c2nc3c(c(N4CCOCC4)n2)CSC3)c(F)cc1Cl	467%	–	–	150 nM	–	–	–	–	–	–
O=S1(=O)Cc2nc(-c3cc(F)c(Cl)cc3F)nc(N3CCOCC3)c2C1	668%	1 mg/kg	30%	28 nM	< 1 µM	–	–	–	–	–
CNC(=O)C1CCN(c2nc(-c3cc(F)c(Cl)cc3F)nc3c2CS(=O)(=O)C3)CC1	457%	3 mg/kg	–	51 nM	11 µM (≈ 5.03 µg/mL)	–	–	–	–	–
NC(=O)C1CCN(c2nc(-c3cc(F)c(Cl)cc3F)nc3c2CS(=O)(=O)C3)CC1	294%	3 mg/kg	12%	21 nM	40 µM (≈ 17.7 µg/mL)	–	–	–	–	–
Fc1cc(-c2nc3c(c(N4CCOCC4)n2)CCS3)c(F)cc1Cl	258%	–	–	970 nM	–	–	–	–	–	–
Fc1cc(-c2nc3c(c(N4CCOCC4)n2)CCCC3)c(F)cc1Cl	313%	–	–	770 nM	–	–	–	–	–	–
NC(=O)CCC1CCN(c2nc(-c3cc(F)c(Cl)cc3F)nc3c2CS(=O)(=O)C3)CC1	627%	0.3 mg/kg	–	18 nM	8 µM (≈ 3.77 µg/mL)	–	–	–	30%	–
O=S1(=O)Cc2nc(-c3cc(F)c(Cl)cc3F)nc(N3CCC(CO)CC3)c2C1	501%	0.3 mg/kg	29%	3.9 nM	16 µM (≈ 6.88 µg/mL)	–	–	–	–	–
O=C(O)C1CCN(c2nc(-c3cc(F)c(Cl)cc3F)nc3c2CS(=O)(=O)C3)CC1	528%	> 3 mg/kg	–	560 nM	–	–	–	–	–	15%
